Test results as given in the NIST ThermoML archive (doi:10.1021/je5007696).

How the values were obtained:
[1] = 100 kPa, Liquid; for viscosity: Concentric cylinders viscometry; for mass density: Vibrating tube method
[2] = refractive index (Na D-line) (dimensionless); conditions: 101.33 kPa, Liquid, Standard Abbe refractometry
[3] = xn = mol fraction of the nth substance listed; conditions: 100 kPa, Liquid, x2 = 0; for viscosity: Concentric cylinders viscometry; for mass density: Vibrating tube method
[4] = refractive index (Na D-line) (dimensionless); xn = mol fraction of the nth substance listed; conditions: 100 kPa, Liquid, Standard Abbe refractometry, x2 = 0

CCCCO [butan-1-ol]
Conditions | mass density, [1] [kg/m3] | refractive index, [2] | viscosity, [1] [mPa·s]
288.15 K | 813.373 | 1.40135 | 3.375
293.15 K | 809.573 | 1.39932 | 2.945
298.15 K | 805.762 | 1.3973 | 2.581
303.15 K | 801.923 | 1.39523 | 2.272
308.15 K | 798.053 | 1.39318 | 2.008
313.15 K | 794.147 | 1.3911 | 1.782
318.15 K | 790.231 | 1.38901 | 1.587
323.15 K | 786.238 | 1.38688 | 1.419

CCCCO [butan-1-ol] + CCC(C)=O
Conditions | mass density, [3] [kg/m3] | refractive index, [4] | viscosity, [3] [mPa·s]
288.15 K | 813.373 | 1.40135 | 3.375
293.15 K | 809.573 | 1.39932 | 2.945
298.15 K | 805.762 | 1.3973 | 2.581
303.15 K | 801.923 | 1.39523 | 2.272
308.15 K | 798.053 | 1.39318 | 2.008
313.15 K | 794.147 | 1.3911 | 1.782
318.15 K | 790.231 | 1.38901 | 1.587
323.15 K | 786.238 | 1.38688 | 1.419
